This is an account of results in US5358955A, “Aryl and heteroarylmethoxyphenyl inhibitors of leukotriene biosynthesis” (Abbott Laboratories, priority 1993, dated 1994).

Molecules are shown by their SMILES.

This test relates to Stimulated LTB4 Formation in Human Polymorphonuclear Leukocytes. The test can be described thus: Inhibition of calcium ionophore-stimulated LTB4 formation in human polymorphonuclear leukocytes (PMNL). The class given is cell-based. The conditions noted are these: for IC50: calcium ionophore 8.3 μM.3 μM, 15 min preincubation, 37° C, read-out: IC50, In Vitro Inhibitory Potencies Against Stimulated LTB4 Formation in Human Polymorphonuclear Leukocytes. The protocol: Inhibition of leukotriene biosynthesis was evaluated in an assay involving calcium ionophore-induced LTB4 expressed in human polymorphornuclear leukocytes (PMNL). Human PMNL isolated from heparinized (20 USP units/mL) venous blood (25 mL) obtained from healthy volunteers was layered over an equal volume of Ficoll-Hypaque Mono-Poly Resolving Medium (ICN Flow, Costa Mesa, CA) and centrifugated at 400 × g for 40 min at 20° C. The PMNL was collected, erythrocytes lysed and washed 2× and suspended at 1.0×10^7 cells/mL in Earle's balanced salt solution with 17 mM Earle's HEPES. Aliquots of the cell suspension were preincubated with test compounds dissolved in DMSO (final concentration <2%) for 15 min. and stimulated with calcium ionophore (final concentration 8.3 μM) for 10 min. at 37° C. Incubations were stopped with the addition of two volumes of ice-cold methanol followed by centrifuging the cell suspensions at 4° C. for 10 min at 450×g. The amount of LTB4 in the methanol extract was analyzed by enzyme-linked linked immunoassay or by HPLC analysis.

By IC50 is commonly meant the concentration that gives 50% inhibition. For `CN(O)C(=O)C(CC1CCCCC1)c1ccc(OCc2ccc3ccccc3n2)cc1` (stereo not drawn) [Example 3, 3-Cyclohexyl-2-[4-(quinolin-2-yl-methoxy)phenyl]propionic acid (N-hydroxy-N-methyl)amide], the IC50 was 64 nM.
Same read-out and setting: next, `CNOC(=O)C(CC1CCCCC1)c1ccc(OCc2ccccn2)cc1` (stereo not drawn) [Example 14, N-Methyl-O-{3-cyclohexyl-2-[4-(pyrid-2-yl-methoxy)phenyl]propionyl}-hydroxylamine]: 1650 nM; `CN(C)OC(=O)C(CC1CCCCC1)c1ccc(OCc2ccc3ccccc3n2)cc1` (stereo not drawn) [Example 17]: 45 nM.
For `CN(O)C(=O)CSC(CCCc1ccc(Cl)cc1)c1ccc(OCc2ccc3ccccc3n2)cc1` (stereo not drawn) [Example 1, {[4-(4-Chlorophenyl)-1-(4-[2-quinolinylmethoxy]phenyl)butyl]thio}acetic acid (N-hydroxy-N-methyl)amide], under “at ~0.095 μmol, calcium ionophore 8.3 μM”, the “% Inhibition, Stimulated LTB4 Formation in Human Polymorphonuclear Leukocytes” value came out at 63%.
Turning to `CNOC(=O)C(CC1CCCCC1)c1ccc(OCc2ccc3ccccc3n2)cc1` (stereo not drawn) [Example 13, N-Methyl-O-{3-cyclohexyl-2-[4-(quinolin-2-yl-methoxy)phenyl]-propionyl}-hydroxylamine], the IC50 is 68 nM.
Still for that read-out and setting: next, `CN(O)C(=O)C=NOC(CCCc1ccc(Cl)cc1)c1ccc(OCc2ccc3ccccc3n2)cc1` (stereo not drawn) [Example 6, {[4-(4-Chlorophenyl)-1-(4-[2-quinolinylmethoxy]phenyl)butyl]iminoxy}acetic acid N-hydroxy-N-methyl-amide]: 132 nM; `CN(O)C(=O)C(c1ccc(OCc2ccc3ccccc3n2)cc1)C1CCCCC1` (stereo not drawn) [Example 8, 2-Cyclohexyl-2-[4-(quinolin-2-yl-methoxy)phenyl]acetic acid N-hydroxy-N-methyl-amide]: 33 nM; `CNOC(=O)C(c1ccc(OCc2ccc3ccccc3n2)cc1)C1CCCCC1` (stereo not drawn) [Example 15, N-Methyl-O-{2-cyclohexyl-2-[4-(quinolin-2-yl-methoxy)phenyl]-acetyl}-hydroxylamine]: 95 nM.
The same measure, in the same setting: next, `CN(O)C(=O)CON=C(CCCc1ccc(Cl)cc1)c1ccc(OCc2ccc3ccccc3n2)cc1` [Example 2, [(4-(4-Chlorophenyl)-1-(4-(2-quinolinylmethoxy)phenyl)butyl)oximino]acetic acid (N-hydroxy-N-methyl)amide]: 66 nM.
